Measurements taken from patent US20250289789A1, “REVERSIBLE LYSINE COVALENT MODIFIERS OF CDK2 AND USES THEREOF” (Terremoto Biosciences, Inc., priority 2023, published 2025).

How the values were obtained:
Assay type in all cases: cell-based
[1] = biological target: T1, CDK1-NanoLuc fusion with CCNB1 in 293T or 293 cells (Homo sapiens, UniProt P06493); assay: NanoBRET Target Engagement (TE) Intracellular Kinase Assay, CDK1/CCNB1; settings: NanoBRET TE intracellular kinase assay, 2-hour incubation, read-out: NanoBRET-CDK1/B1 IC50
T1 construct: host or cells: 293T (ATCC CRL-3216) or 293 (ATCC CRL-1573)
Outline: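 IC50 derived by four-parameter logistic fit of DMSO-normalized acceptor/donor (610/450 nm) BRET ratio. Compound and Tracer K-10 were applied together for 2 h at 37° C to 293 or 293T cells transfected 24 h earlier with CDK1-NanoLuc fusion and cyclin B1.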

[2] = biological target: T2, CDK2-NanoLuc fusion with CCNE1 in 293T or 293 cells (Homo sapiens, UniProt P24941); assay: NanoBRET Target Engagement (TE) Intracellular Kinase Assay, CDK2/CCNE1; settings: NanoBRET TE intracellular kinase assay, 2-hour incubation, read-out: NanoBRET-CDK2/E1 IC50
T2 construct: host or cells: 293T (ATCC CRL-3216) or 293 (ATCC CRL-1573)

[3] = biological target: T3, CDK4-NanoLuc fusion with CCND1 in 293T or 293 cells (Homo sapiens, UniProt P11802); assay: NanoBRET Target Engagement (TE) Intracellular Kinase Assay, CDK4/CCND1; settings: NanoBRET TE intracellular kinase assay, 2-hour incubation, read-out: NanoBRET-CDK4/D1 IC50
T3 construct: host or cells: 293T (ATCC CRL-3216) or 293 (ATCC CRL-1573)

[4] = test system: Phospho-Rb Ser807/811 in OVCAR3 cells; assay: OVCAR3 Phospho-Rb Ser807/811 HTRF assay; settings: Homo sapiens, OVCAR-3, 1 h, OVCAR3 cells, Phospho-Rb Ser807/811 HTRF, 1 hour incubation; read-out: pRb-OVCAR3 IC50
Description: Cells were trypsinized and resuspended in 1 mM hydroxyurea (Sigma; H8627), 90% RPMI and 10% fetal bovine serum. […] Dose response curve normalized to DMSO control was plotted using four-parameter logistic model for IC50 calculation.

T3 sequence (P11802 whole entry, the tested form may be a part): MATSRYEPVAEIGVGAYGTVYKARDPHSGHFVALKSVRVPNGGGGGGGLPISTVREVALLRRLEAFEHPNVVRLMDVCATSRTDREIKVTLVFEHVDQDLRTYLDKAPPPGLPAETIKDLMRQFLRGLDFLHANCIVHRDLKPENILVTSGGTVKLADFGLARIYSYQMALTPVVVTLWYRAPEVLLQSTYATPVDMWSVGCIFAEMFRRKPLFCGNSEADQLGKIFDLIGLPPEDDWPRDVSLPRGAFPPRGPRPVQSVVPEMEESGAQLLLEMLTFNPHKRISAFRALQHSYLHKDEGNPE
T3 sequence (P24385 whole entry partner, the tested form may be a part): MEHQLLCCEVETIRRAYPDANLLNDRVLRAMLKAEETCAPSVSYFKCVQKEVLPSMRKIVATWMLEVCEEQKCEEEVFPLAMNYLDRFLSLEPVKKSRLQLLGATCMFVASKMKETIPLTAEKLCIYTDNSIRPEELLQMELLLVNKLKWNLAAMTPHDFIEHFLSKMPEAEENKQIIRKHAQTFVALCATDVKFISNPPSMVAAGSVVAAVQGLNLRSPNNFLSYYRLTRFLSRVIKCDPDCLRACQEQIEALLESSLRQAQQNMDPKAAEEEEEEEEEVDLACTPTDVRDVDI
T1 sequence (P06493 whole entry, the tested form may be a part): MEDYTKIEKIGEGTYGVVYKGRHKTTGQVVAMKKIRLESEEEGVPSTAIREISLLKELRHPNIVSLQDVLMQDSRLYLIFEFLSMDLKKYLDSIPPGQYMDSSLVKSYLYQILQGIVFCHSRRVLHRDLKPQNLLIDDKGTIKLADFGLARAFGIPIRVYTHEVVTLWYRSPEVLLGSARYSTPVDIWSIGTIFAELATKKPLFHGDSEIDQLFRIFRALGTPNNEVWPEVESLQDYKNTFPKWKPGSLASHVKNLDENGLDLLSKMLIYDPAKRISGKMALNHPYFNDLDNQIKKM
T1 sequence (P14635 whole entry partner, the tested form may be a part): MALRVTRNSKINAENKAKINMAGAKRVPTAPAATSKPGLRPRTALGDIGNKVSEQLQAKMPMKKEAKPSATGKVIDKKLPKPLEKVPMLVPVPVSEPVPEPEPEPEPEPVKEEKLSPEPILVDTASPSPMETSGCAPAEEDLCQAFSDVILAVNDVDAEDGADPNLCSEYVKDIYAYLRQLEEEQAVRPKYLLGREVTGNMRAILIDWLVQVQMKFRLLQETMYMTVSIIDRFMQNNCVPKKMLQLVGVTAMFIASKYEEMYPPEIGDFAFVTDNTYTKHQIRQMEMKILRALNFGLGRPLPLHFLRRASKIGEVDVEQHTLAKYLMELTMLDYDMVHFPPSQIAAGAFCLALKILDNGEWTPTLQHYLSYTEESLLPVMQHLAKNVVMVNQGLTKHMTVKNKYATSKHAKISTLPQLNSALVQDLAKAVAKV

Compound | IC50 [1] [nM] | IC50 [2] [nM] | IC50 [3] [nM] | IC50 [4] [nM]
CC(C)NC(=O)O[C@@H]1CC[C@H](c2cc(NC(=O)c3cnc(-c4cccc(O)c4C=O)o3)n[nH]2)C1 [Compound 55, (1R,3S)-3-{5-[2-(2-formyl-3-hydroxyphenyl)-1,3-oxazole-5-amido]-2H-pyrazol-3-yl}cyclopentyl N-isopropylcarbamat] | 69.9 | 21.9 | > 10000 | 1430
Cc1ccc(OCC(=O)Nc2cc([C@H]3CC[C@@H](OC(=O)NC(C)C)C3)[nH]n2)c(C=O)c1O [Compound 56, (1R,3S)-3-(3-(2-(2-formyl-3-hydroxy-4-methylphenoxy)acetamido)-1H-pyrazol-5-yl)cyclopentyl isopropylcarbamate] | 4.83 | 1.32 | > 10000 | 75.8
Cc1cc(O)c(C=O)c(OCC(=O)Nc2cc([C@H]3CC[C@@H](OC(=O)NC(C)C)C3)[nH]n2)c1 [Compound 57, (1R,3S)-3-(3-(2-(2-formyl-3-hydroxy-5-methylphenoxy)acetamido)-1H-pyrazol-5-yl)cyclopentyl isopropylcarbamate] | 21.9 | 3.06 | > 9580 | 110
CC(C)NC(=O)O[C@@H]1CC[C@H](c2cc(NC(=O)c3cc(-c4cccc(O)c4C=O)n(C)n3)n[nH]2)C1 [Compound 59, (1R,3S)-3-{5-[5-(2-formyl-3-hydroxyphenyl)-1-methylpyrazole-3-amido]-2H-pyrazol-3-yl}cyclopentyl N-isopropylcarbamate] | 362 | 32.1 | > 10000 | 2300
CCn1nc(-c2cccc(O)c2C=O)cc1C(=O)Nc1cc([C@H]2CC[C@@H](OC(=O)NC(C)C)C2)[nH]n1 [Compound 60, (1R,3S)-3-{5-[2-ethyl-5-(2-formyl-3-hydroxyphenyl)pyrazole-3-amido]-2H-pyrazol-3-yl}cyclopentyl N-isopropylcarbamate; trifluoroacetic acid] | 15.1 | 6.5 | 3630 | 230
CC(C)NC(=O)O[C@@H]1CC[C@H](c2cc(NC(=O)c3cc(-c4cccc(O)c4C=O)nn3C3CC3)n[nH]2)C1 [Compound 61, (1R,3S)-3-(3-(1-cyclopropyl-3-(2-formyl-3-hydroxyphenyl)-1H-pyrazole-5-carboxamido)-1H-pyrazol-5-yl)cyclopentyl isopropylcarbamate] | 36.1 | 6.27 | 2890 | 477
CC(C)NC(=O)O[C@@H]1CC[C@H](c2cc(NC(=O)C3Cc4ccc(O)c(C=O)c4O3)n[nH]2)C1 (stereo partly drawn) [Compound 62, (1R,3S)-3-(3-(7-formyl-6-hydroxy-2,3-dihydrobenzo-furan-2-carboxamido)-1H-pyrazol-5-yl)cyclopentyl isopropylcarbamate] | 270 | 34.4 | 7230 | 1870
CC(C)NC(=O)O[C@@H]1CC[C@H](c2cc(NC(=O)OCc3cccc(O)c3C=O)n[nH]2)C1 [Compound 63, (2-formyl-3-hydroxyphenyl)methyl N-{5-[(1S,3R)-3-[(isopropylcarbamoyl)oxy]cyclopentyl]-1H-pyrazol-3-yl}carbamate] | 361 | 9.55 | 6320 | 1260
Cc1sc(-c2cccc(O)c2C=O)nc1C(=O)Nc1cc([C@H]2CC[C@@H](OC(=O)NC(C)C)C2)[nH]n1 [Compound 65, (1R,3S)-3-(3-(2-(2-formyl-3-hydroxyphenyl)-5-methylthiazole-4-carboxamido)-1H-pyrazol-5-yl)cyclopentyl isopropylcarbamate] | 28.1 | 8.52 | 4630 | 318
CC(C)NC(=O)O[C@@H]1CC[C@H](c2cc(NC(=O)Cc3ncc(-c4cccc(O)c4C=O)s3)n[nH]2)C1 [Compound 66, (1R,3S)-3-(5-{2-[5-(2-formyl-3-hydroxyphenyl)-1,3-thiazol-2-yl]acetamido}-2H-pyrazol-3-yl)cyclopentyl N-isopropylcarbamate; trifluoroacetic acid] | 390 | 8.87 | 779 | 1690
CC(C)NC(=O)O[C@@H]1CC[C@H](c2cc(NC(=O)Cc3cnc(-c4cccc(O)c4C=O)s3)n[nH]2)C1 [Compound 67, (1R,3S)-3-(3-(2-(2-(2-formyl-3-hydroxyphenyl)thiazol-5-yl)acetamido)-1H-pyrazol-5-yl)cyclopentyl isopropylcarbamate; trifluoroacetic acid] | 35.3 | 6.73 | 202 | 475
CC(C)NC(=O)O[C@@H]1CC[C@H](c2cc(NC(=O)Cc3ccc(-c4cccc(O)c4C=O)cc3)n[nH]2)C1 [Compound 68, (1R,3S)-3-[5-(2-{2′-formyl-3′-hydroxy-[1,1′-biphenyl]-4-yl}acetamido)-2H-pyrazol-3-yl]cyclopentyl N-isopropylcarbamate; trifluoroacetic acid] | 39.2 | 5.56 | 1150 | 662
Cc1ncc(Oc2cccc(O)c2C=O)nc1C(=O)Nc1cc([C@H]2CC[C@@H](OC(=O)NC(C)C)C2)[nH]n1 [Compound 70, (1R,3S)-3-{5-[6-(2-formyl-3-hydroxyphenoxy)-3-methylpyrazine-2-amido]-2H-pyrazol-3-yl}cyclopentyl N-isopropylcarbamate] | 337 | 10.1 | 699 | 2680
COCc1cc(O)c(C=O)c(-c2cc(C(=O)Nc3cc([C@H]4CC[C@@H](OC(=O)NC(C)C)C4)[nH]n3)n(C)n2)c1 [Compound 71, (1R,3S)-3-(5-{5-[2-formyl-3-hydroxy-5-(methoxymethyl)phenyl]-2-methylpyrazole-3-amido}-2H-pyrazol-3-yl)cyclopentyl N-isopropylcarbamate; trifluoroacetic acid] | 10.3 | 7.8 | 4110 | 85.5
COCc1cc(O)c(C=O)c(OCC(=O)Nc2cc([C@H]3CC[C@@H](OC(=O)NC(C)C)C3)[nH]n2)c1 [Compound 72, (1R,3S)-3-(3-(2-(2-formyl-3-hydroxy-5-(methoxymethyl)phenoxy)acetamido)-1H-pyrazol-5-yl)cyclopentyl isopropylcarbamate] | 436 | 8.38 | > 10000 | 477
CC(C)NC(=O)O[C@@H]1CC[C@H](c2cc(NC(=O)COc3cc(Cl)cc(O)c3C=O)n[nH]2)C1 [Compound 73, (1R,3S)-3-(3-(2-(5-chloro-2-formyl-3-hydroxyphenoxy)acetamido)-1H-pyrazol-5-yl)cyclopentyl isopropylcarbamate] | 61 | 26.7 | > 10000 | 299
COc1ccc(-c2cc(C(=O)Nc3cc([C@H]4CC[C@@H](OC(=O)NC(C)C)C4)[nH]n3)n(C)n2)c(C=O)c1O [Compound 74, (1R,3S)-3-{5-[5-(2-formyl-3-hydroxy-4-methoxyphenyl)-2-methylpyrazole-3-amido]-2H-pyrazol-3-yl}cyclopentyl N-isopropylcarbamate; trifluoroacetic acid] | 29.5 | 7.06 | 3950 | 523
CC(C)NC(=O)O[C@@H]1CC[C@H](c2cc(Nc3cc(C#Cc4cccc(O)c4C=O)ccn3)n[nH]2)C1 [Compound 75, (1R,3S)-3-[5-({4-[2-(2-formyl-3-hydroxyphenyl)ethynyl]pyridin-2-yl}amino)-2H-pyrazol-3-yl]cyclopentyl N-isopropylcarbamate; trifluoroacetic acid] | 372 | 21.4 | 224 | 4970
COc1cc(O)c(C=O)c(Oc2ccnc(Nc3cc([C@H]4CC[C@@H](OC(=O)NC(C)C)C4)[nH]n3)c2)c1 [Compound 76, (1R,3S)-3-(3-((4-(2-formyl-3-hydroxy-5-methoxyphenoxy) 476yridine-2-yl)amino)-1H-pyrazol-5-yl)cyclopentyl isopropylcarbamate] | 66 | 5.01 | 6390 | 309
COc1cc(O)c(C=O)c(OCc2cc(C(=O)Nc3cc([C@H]4CC[C@@H](OC(=O)NC(C)C)C4)[nH]n3)n(C)n2)c1 [Compound 77] | 8.93 | 3.05 | 44.3 | 46.5
CC(C)NC(=O)O[C@@H]1CC[C@H](c2cc(NC(=O)N3CC=C(c4cccc(O)c4C=O)C3)n[nH]2)C1 [Compound 78, (1R,3S)-3-(3-(3-(2-formyl-3-hydroxyphenyl)-2,5-dihydro-1H-pyrrole-1-carboxamido)-1H-pyrazol-5-yl)cyclopentyl isopropylcarbamate] | 142 | 16.7 | > 10000 | 1190
